The results in this text go back to US20090306147A1, “BIOLOGICAL EFFICACY OF AGROCHEMICAL COMPOSITIONS ON APPLICATION IN THE GROWTH SUBSTRATE SUITABLE FORMULATIONS AND USE THEREOF” (priority 2006, published 2009).

Assay type in all cases: in vivo
The subject of data set [1] is green peach aphid (Myzus persicae). Briefly: Watering test on bell-pepper plant, green peach aphid (Use Example 3). As for the experimental part: After sowing, a bell-pepper plant is grown for about 30 days in a 1 litre vessel. The plant is then watered with 60 ml of a solution having the stated concentration of insecticidally active compound and adjuvant and, after the stated period of time, infected with the green peach aphid (Myzus persicae). After the desired period of time, the kill in % is determined. 100% means that all aphids have been killed; 0% means that none of the aphids have been killed. The same test without added adjuvant served as a control.

The test system is the same in data set [2]. In words: Watering test on cabbage plant, green peach aphid (Use Example 5). The following applies: infection 3 d after application, 7 d after infection. As for the experimental part: After sowing, a cabbage plant (Brassica oleracea) is grown for about 10 days in a 1 litre vessel. The plant is then watered with 60 ml of a solution having the stated concentration of insecticidally active compound and adjuvant and, after the stated period of time, infected with the green peach aphid (Myzus persicae). After the desired period of time, the kill in % is determined. 100% means that all aphids have been killed; 0% means that none of the aphids have been killed. The same test without added adjuvant served as a control.

Data set [3] relates to diamond-back moth (Plutella xylostella). In words: Watering test on cabbage plant, diamond-back moth caterpillars (Use Example 4). The following applies: infection 1 d after application, 7 d after infection. As for the experimental part: After sowing, a cabbage plant (Brassica oleracea) is grown for about 14 days in a 1 litre vessel. The plant is then watered with 60 ml of a solution having the stated concentration of insecticidally active compound and adjuvant and, after the stated period of time, infected with the caterpillars of the diamond-back moth (Plutella xylostella). After the desired period of time, the kill in % is determined. 100% means that all caterpillars have been killed; 0% means that none of the caterpillars have been killed. The same test without added adjuvant served as a control.

For the molecule `CN(Cc1ccc(Cl)nc1)C1=CC(=O)OC1` [(IV-1)], the Mortality entry in data set [1] (0.0156 mg/l of soil, adjuvant (I-3) 2000 mg/l, infection 13 d after application, 5 d after infection) is given as “D (from 76 to 100)”; in data set [1] (0.0156 mg/l of soil, adjuvant (I-3) 2000 mg/l, infection 13 d after application, 7 d after infection), “D (from 76 to 100)”; in data set [1] (0.0156 mg/l of soil, adjuvant (I-5) 2000 mg/l, infection 13 d after application, 5 d after infection), “D (from 76 to 100)”; in data set [1] (0.0156 mg/l of soil, adjuvant (I-5) 2000 mg/l, infection 13 d after application, 7 d after infection), “D (from 76 to 100)”; in data set [1] (0.0156 mg/l of soil, no adjuvant, infection 13 d after application, 5 d after infection) it was “C (from 51 to 75%)”; in data set [1] (0.0156 mg/l of soil, no adjuvant, infection 13 d after application, 7 d after infection), “C (from 51 to 75%)”. The Mortality result in data set [1] (0.0313 mg/l of soil, adjuvant (I-3) 2000 mg/l, infection 7 d after application, 4 d after infection) is “D (from 76 to 100)”; in data set [1] (0.0313 mg/l of soil, adjuvant (I-3) 2000 mg/l, infection 7 d after application, 6 d after infection), “D (from 76 to 100)”; in data set [1] (0.0313 mg/l of soil, adjuvant (I-5) 2000 mg/l, infection 7 d after application, 4 d after infection), “D (from 76 to 100)”; in data set [1] (0.0313 mg/l of soil, adjuvant (I-5) 2000 mg/l, infection 7 d after application, 6 d after infection) it was “D (from 76 to 100)”; in data set [1] (0.0313 mg/l of soil, no adjuvant, infection 7 d after application, 4 d after infection), “C (from 51 to 75%)”; in data set [1] (0.0313 mg/l of soil, no adjuvant, infection 7 d after application, 6 d after infection) it was “C (from 51 to 75%)”.
For `O=[N+]([O-])NC1=NCCN1Cc1ccc(Cl)nc1` [(II-7), imidacloprid], the Mortality result in data set [2] (0.00195 mg/l of soil, adjuvant (I-2) 1000 mg/l) is listed as “B (from 26 to 50%)”; in data set [2] (0.00195 mg/l of soil, no adjuvant) it was “A (from 0 to 25%)”; in data set [2] (0.0039 mg/l of soil, adjuvant (I-2) 1000 mg/l) it was “C (from 51 to 75%)”; in data set [2] (0.0039 mg/l of soil, no adjuvant) it was “B (from 26 to 50%)”; in data set [1] (0.0039 mg/l of soil, adjuvant (I-2) 1000 mg/l, infection 3 d after application, 7 d after infection), “D (from 76 to 100)”; in data set [1] (0.0039 mg/l of soil, adjuvant (I-3) 2000 mg/l watering solution, infection 3 d after application, 4 d after infection) it was “D (from 76 to 100)”. Moreover, the Mortality result is listed as “D (from 76 to 100)” in data set [1] (0.0039 mg/l of soil, adjuvant (I-3) 2000 mg/l, infection 3 d after application, 7 d after infection); “D (from 76 to 100)” in data set [1] (0.0039 mg/l of soil, adjuvant (I-3) 2000 mg/l, infection 21 d after application, 4 d after infection); “D (from 76 to 100)” in data set [1] (0.0039 mg/l of soil, adjuvant (I-3) 2000 mg/l, infection 21 d after application, 7 d after infection); “D (from 76 to 100)” in data set [1] (0.0039 mg/l of soil, adjuvant (I-5) 2000 mg/l watering solution, infection 3 d after application, 4 d after infection); “D (from 76 to 100)” in data set [1] (0.0039 mg/l of soil, adjuvant (I-5) 2000 mg/l, infection 3 d after application, 7 d after infection); “D (from 76 to 100)” in data set [1] (0.0039 mg/l of soil, adjuvant (I-5) 2000 mg/l, infection 21 d after application, 4 d after infection). Besides, the Mortality entry in data set [1] (0.0039 mg/l of soil, adjuvant (I-5) 2000 mg/l, infection 21 d after application, 7 d after infection) was “D (from 76 to 100)”; in data set [1] (0.0039 mg/l of soil, no adjuvant, infection 3 d after application, 4 d after infection), “B (from 26 to 50%)”; in data set [1] (0.0039 mg/l of soil, no adjuvant, infection 3 d after application, 7 d after infection), “C (from 51 to 75%)”; in data set [1] (0.0039 mg/l of soil, no adjuvant, infection 21 d after application, 4 d after infection), “C (from 51 to 75%)”; in data set [1] (0.0039 mg/l of soil, no adjuvant, infection 21 d after application, 7 d after infection), “C (from 51 to 75%)”.
`N#Cc1nn(-c2c(Cl)cc(C(F)(F)F)cc2Cl)c(N)c1[S+]([O-])C(F)(F)F` (centres unmarked) [(VI-1), fipronil]: the Mortality result in data set [3] (1 mg/l of soil, adjuvant (I-3) 1000 mg/l) is recorded as “B (from 26 to 50%)”; in data set [3] (1 mg/l of soil, adjuvant (I-5) 1000 mg/l) it was “C (from 51 to 75%)”; in data set [3] (1 mg/l of soil, no adjuvant), “A (from 0 to 25%)”; in data set [3] (5 mg/l of soil, adjuvant (I-3) 1000 mg/l), “D (from 76 to 100)”; in data set [3] (5 mg/l of soil, no adjuvant) it was “C (from 51 to 75%)”.
Regarding `CCOC(=O)OC1=C(c2cc(C)ccc2C)C(=O)NC12CCC(OC)CC2` (centres unmarked) [(V-3)], the Mortality entry in data set [1] (2 mg/l of soil, adjuvant (I-5) 1000 mg/l, infection 3 d after application, 7 d after infection) is given as “C (from 51 to 75%)”; in data set [1] (2 mg/l of soil, adjuvant (I-5) 1000 mg/l, infection 5 d after application, 7 d after infection), “C (from 51 to 75%)”; in data set [1] (2 mg/l of soil, no adjuvant, infection 3 d after application, 7 d after infection) it was “B (from 26 to 50%)”; in data set [1] (2 mg/l of soil, no adjuvant, infection 5 d after application, 7 d after infection), “B (from 26 to 50%)”.
